# Tested on: MV-4-11 cells
# Experiment: Gene expression microarray analysis (Affymetrix PrimeView) and GSEA
# Type: cell-based, human
# Set-up: RFU PODN (11730768_x_at) / Fold change /veh PODN (11730768_x_at) / RFU LINC00158 (11744669_a_at) / Fold change /veh LINC00158 (11744669_a_at) / RFU DUSP10 (11751237_a_at) / Fold change /veh DUSP10 (11751237_a_at) / RFU ID3 (11757404_x_at) / Fold change /veh ID3 (11757404_x_at) / RFU PLEKHG5 (11737974_s_at) / Fold change /veh PLEKHG5 (11737974_s_at) / RFU LRRC4B (11730491_at) / Fold change /veh LRRC4B (11730491_at) / RFU GIMAP4 (11747438_a_at) / Fold change /veh GIMAP4 (11747438_a_at) / RFU KRT8 (11758183_x_at) / Fold change /veh KRT8 (11758183_x_at) / RFU CNN1 (11734310_a_at) / Fold change /veh CNN1 (11734310_a_at) / RFU VPS37D (11726825_at) / Fold change /veh VPS37D (11726825_at) / RFU C10orf10 (11716522_x_at) / Fold change /veh C10orf10 (11716522_x_at) / RFU KIR2DL2 /// KIR2DL4 /// KIR2DL5A /// KIR2DL5B /// KIR2DS1 /// KIR2DS2 /// KIR2DS3 /// KIR2DS4 /// KIR3DL3 /// KIR3DL3 /// KIR3DS1 (11738374_at) / Fold change /veh KIR2DL2 /// KIR2DL4 /// KIR2DL5A /// KIR2DL5B /// KIR2DS1 /// KIR2DS2 /// KIR2DS3 /// KIR2DS4 /// KIR3DL3 /// KIR3DL3 /// KIR3DS1 (11738374_at) / RFU C1QL1 (11718748_at) / Fold change /veh C1QL1 (11718748_at) / RFU TMPRSS4 (11747572_a_at) / Fold change /veh TMPRSS4 (11747572_a_at) / RFU HAMP (11756126_x_at) / Fold change /veh HAMP (11756126_x_at) / RFU RNFT2 (11725882_a_at) / Fold change /veh RNFT2 (11725882_a_at) / RFU NR4A2 (11747474_a_at) / Fold change /veh NR4A2 (11747474_a_at) / RFU ABCC12 (11746883_a_at) / Fold change /veh ABCC12 (11746883_a_at) / RFU TMEM136 (11760407_x_at) / Fold change /veh TMEM136 (11760407_x_at) / RFU CLDN22 /// WWC2 (11732394_at) / Fold change /veh CLDN22 /// WWC2 (11732394_at) / RFU HLA-DPB1 (11760878_x_at) / Fold change /veh HLA-DPB1 (11760878_x_at) / RFU SPINT1 (11716480_a_at) / Fold change /veh SPINT1 (11716480_a_at) / RFU GAP43 (11754022_s_at) / Fold change /veh GAP43 (11754022_s_at) / RFU A4GNT (11735810_at) / Fold change /veh A4GNT (11735810_at) / RFU PRB3 (11715151_x_at) / Fold change /veh PRB3 (11715151_x_at) / RFU TUBB4B (11761932_at) / Fold change /veh TUBB4B (11761932_at) / RFU CAPN14 (11732068_a_at) / Fold change /veh CAPN14 (11732068_a_at) / RFU TMCC2 (11721928_a_at) / Fold change /veh TMCC2 (11721928_a_at) / RFU IRGQ (11745062_a_at) / Fold change /veh IRGQ (11745062_a_at) / RFU FAM174B (11720279_a_at) / Fold change /veh FAM174B (11720279_a_at) / RFU TMPRSS4 (11748680_a_at) / Fold change /veh TMPRSS4 (11748680_a_at) / RFU FAM212B (11763350_a_at) / Fold change /veh FAM212B (11763350_a_at) / RFU PLEKHG5 (11743358_a_at) / Fold change /veh PLEKHG5 (11743358_a_at) / RFU ZSCAN30 (11745921_a_at) / Fold change /veh ZSCAN30 (11745921_a_at) / RFU CMKLR1 (11741424_a_at) / Fold change /veh CMKLR1 (11741424_a_at) / RFU LOC101060620 /// MAPK8IP1 (11723275_at) / Fold change /veh LOC101060620 /// MAPK8IP1 (11723275_at) / RFU SPTSSB (11747773_x_at) / Fold change /veh SPTSSB (11747773_x_at) / RFU PRSS12 (11739890_at) / Fold change /veh PRSS12 (11739890_at) / RFU BIN1 (11741810_x_at) / Fold change /veh BIN1 (11741810_x_at) / RFU WNT11 (11732464_a_at) / Fold change /veh WNT11 (11732464_a_at) / RFU C10orf10 (11716521_a_at) / Fold change /veh C10orf10 (11716521_a_at) / RFU C5orf56 (11738089_at) / Fold change /veh C5orf56 (11738089_at) / RFU CYB561 (11721691_x_at) / Fold change /veh CYB561 (11721691_x_at) / RFU ANKRD19P (11752326_a_at) / Fold change /veh ANKRD19P (11752326_a_at) / RFU OR2T12 /// OR2T33 /// OR2T8 (11738714_s_at) / Fold change /veh OR2T12 /// OR2T33 /// OR2T8 (11738714_s_at) / RFU VCAN (11748164_a_at) / Fold change /veh VCAN (11748164_a_at) / RFU JSRP1 (11732532_at) / Fold change /veh JSRP1 (11732532_at) / RFU KRTAP10-11 (11738290_x_at) / Fold change /veh KRTAP10-11 (11738290_x_at) / RFU MYO3A (11730013_a_at) / Fold change /veh MYO3A (11730013_a_at) / RFU EBF3 (11725865_a_at) / Fold change /veh EBF3 (11725865_a_at) / RFU CAMK2N1 (11719241_x_at) / Fold change /veh CAMK2N1 (11719241_x_at) / RFU C5orf56 (11738088_a_at) / Fold change /veh C5orf56 (11738088_a_at) / RFU OLFML3 (11715873_a_at) / Fold change /veh OLFML3 (11715873_a_at) / RFU LOC100653217 /// NTM (11731650_a_at) / Fold change /veh LOC100653217 /// NTM (11731650_a_at) / RFU MAPK11 (11762145_a_at) / Fold change /veh MAPK11 (11762145_a_at) / RFU FIZ1 (11724087_x_at) / Fold change /veh FIZ1 (11724087_x_at) / RFU OASL (11726364_x_at) / Fold change /veh OASL (11726364_x_at) / RFU SOX15 (11748057_x_at) / Fold change /veh SOX15 (11748057_x_at) / RFU CD79A (11719716_a_at) / Fold change /veh CD79A (11719716_a_at) / RFU HIST1H1D (11736915_at) / Fold change /veh HIST1H1D (11736915_at) / RFU CASKIN2 (11723855_a_at) / Fold change /veh CASKIN2 (11723855_a_at) / RFU LOC730098 (11760151_x_at) / Fold change /veh LOC730098 (11760151_x_at) / RFU OR4N2 (11742367_at) / Fold change /veh OR4N2 (11742367_at) / RFU PRRT2 (11749266_a_at) / Fold change /veh PRRT2 (11749266_a_at) / RFU SNX32 (11753110_a_at) / Fold change /veh SNX32 (11753110_a_at) / RFU CDHR5 (11726645_a_at) / Fold change /veh CDHR5 (11726645_a_at) / RFU RCAN1 (11760418_a_at) / Fold change /veh RCAN1 (11760418_a_at) / RFU FAM167A (11723789_a_at) / Fold change /veh FAM167A (11723789_a_at) / RFU FAM26E (11764081_at) / Fold change /veh FAM26E (11764081_at) / RFU ISYNA1 (11749810_s_at) / Fold change /veh ISYNA1 (11749810_s_at) / RFU ACY1 (11761880_at) / Fold change /veh ACY1 (11761880_at) / RFU 11764098_at / Fold change /veh 11764098_at / RFU SAMD14 (11745864_x_at) / Fold change /veh SAMD14 (11745864_x_at) / RFU NPB (11741838_a_at) / Fold change /veh NPB (11741838_a_at) / RFU TMPRSS6 (11731388_a_at) / Fold change /veh TMPRSS6 (11731388_a_at) / RFU KRTAP10-2 (11738614_at) / Fold change /veh KRTAP10-2 (11738614_at) / RFU ARHGAP8 /// PRR5-ARHGAP8 (11727945_x_at) / Fold change /veh ARHGAP8 /// PRR5-ARHGAP8 (11727945_x_at) / RFU KRTAP5-7 /// NADSYN1 (11734609_at) / Fold change /veh KRTAP5-7 /// NADSYN1 (11734609_at) / RFU RASL12 (11751679_a_at) / Fold change /veh RASL12 (11751679_a_at) / RFU CDKN2B (11736163_a_at) / Fold change /veh CDKN2B (11736163_a_at) / RFU PRF1 (11729649_at) / Fold change /veh PRF1 (11729649_at) / RFU, ZNF638 /// ZNF638-IT1 / Fold change vs veh, ZNF638 /// ZNF638-IT1 / RFU, PANK3 / Fold change vs veh, PANK3 / RFU, SH3YL1 / Fold change vs veh, SH3YL1 / RFU, ZEB2 / Fold change vs veh, ZEB2 / RFU, NRIP1 / Fold change vs veh, NRIP1 / RFU, PTTG1IP / Fold change vs veh, PTTG1IP / RFU, CAPN2 / Fold change vs veh, CAPN2 / RFU, MED14 / Fold change vs veh, MED14 / RFU, SNORA58 / Fold change vs veh, SNORA58 / RFU, C1orf63 / Fold change vs veh, C1orf63 / RFU, LRRFIP1 / Fold change vs veh, LRRFIP1 / RFU, NDUFAF7 / Fold change vs veh, NDUFAF7 / RFU, SLC12A2 / Fold change vs veh, SLC12A2 / RFU, IBTK / Fold change vs veh, IBTK / RFU, ESF1 / Fold change vs veh, ESF1 / Fold change vs veh, TMEM50B / RFU, TAOK1 / Fold change vs veh, TAOK1 / RFU, ACBD3 / Fold change vs veh, ACBD3 / RFU, TMA16 / Fold change vs veh, TMA16 / RFU, RWDD3 / Fold change vs veh, RWDD3 / RFU, BCAT1 / Fold change vs veh, BCAT1 / RFU, EDEM3 / Fold change vs veh, EDEM3 / RFU, TMEM33 / Fold change vs veh, TMEM33 / RFU, WDR75 / Fold change vs veh, WDR75 / RFU, AHCTF1 / Fold change vs veh, AHCTF1 / RFU, TFRC / Fold change vs veh, TFRC / RFU, ZDHHC17 / Fold change vs veh, ZDHHC17 / RFU, NOM1 / Fold change vs veh, NOM1 / RFU, ARL8B / Fold change vs veh, ARL8B / RFU, ZBTB11 / Fold change vs veh, ZBTB11 / RFU, TAMM41 / Fold change vs veh, TAMM41 / RFU, KIAA1704 /// LOC100996395 / Fold change vs veh, KIAA1704 /// LOC100996395 / RFU, ING1 / Fold change vs veh, ING1 / RFU, TRMT61B / Fold change vs veh, TRMT61B / RFU, FUBP3 / Fold change vs veh, FUBP3 / RFU, TP53 / Fold change vs veh, TP53 / RFU, TNKS2 / Fold change vs veh, TNKS2 / RFU, ZFP14 / Fold change vs veh, ZFP14 / RFU, ACTR2 / Fold change vs veh, ACTR2 / RFU, PPP3R1 / Fold change vs veh, PPP3R1 / RFU, PIK3R1 / Fold change vs veh, PIK3R1 / RFU, HNRNPA1 / Fold change vs veh, HNRNPA1 / RFU, RNF170 / Fold change vs veh, RNF170 / RFU, ZNF28 / Fold change vs veh, ZNF28 / RFU, RNGTT / Fold change vs veh, RNGTT / RFU, OGT / Fold change vs veh, OGT / RFU, BRD1 / Fold change vs veh, BRD1 / RFU, MARS / Fold change vs veh, MARS / RFU, ZNF655 / Fold change vs veh, ZNF655 / RFU, FAHD1 / Fold change vs veh, FAHD1 / RFU, BDP1 / Fold change vs veh, BDP1 / RFU, LRRCC1 / Fold change vs veh, LRRCC1 / RFU, ARID1A / Fold change vs veh, ARID1A / RFU, ZNF146 / Fold change vs veh, ZNF146 / RFU, ZNF330 / Fold change vs veh, ZNF330 / RFU, GPN3 / Fold change vs veh, GPN3 / RFU, C9orf123 / Fold change vs veh, C9orf123 / RFU, N4BP2L2 / Fold change vs veh, N4BP2L2 / RFU, ARFIP1 / Fold change vs veh, ARFIP1 / RFU, FAM179B / Fold change vs veh, FAM179B / RFU, BCL10 / Fold change vs veh, BCL10 / RFU, UHRF1BP1L / Fold change vs veh, UHRF1BP1L / RFU, BET1 / Fold change vs veh, BET1 / RFU, CNOT2 / Fold change vs veh, CNOT2 / RFU, ZNF268 / Fold change vs veh, ZNF268 / Fold change vs veh, ZNF507 / RFU, DGCR2 / Fold change vs veh, DGCR2 / RFU, WDSUB1 / Fold change vs veh, WDSUB1 / Fold change vs veh, HSP90B1 /// MIR3652 / RFU, ADSS / Fold change vs veh, ADSS / RFU, GK / Fold change vs veh, GK / RFU, ZNF148 / Fold change vs veh, ZNF148 / RFU, TAF9 / Fold change vs veh, TAF9 / RFU, SLC1A5 / Fold change vs veh, SLC1A5 / RFU, SLMO2 / Fold change vs veh, SLMO2 / RFU, ABCC4 / Fold change vs veh, ABCC4 / RFU, LOC101060439 /// RAP1B / Fold change vs veh, LOC101060439 /// RAP1B / RFU, RFX7 / Fold change vs veh, RFX7 / RFU, GTPBP10 / Fold change vs veh, GTPBP10 / RFU, CNEP1R1 / Fold change vs veh, CNEP1R1 / RFU, BIVM-ERCC5 /// ERCC5 / Fold change vs veh, BIVM-ERCC5 /// ERCC5 / RFU, ILF3 / Fold change vs veh, ILF3 / RFU 11762660_at / Fold change /veh 11762660_at / RFU VCAN (11757783_s_at) / Fold change /veh VCAN (11757783_s_at) / RFU DDX43 (11728927_at) / Fold change /veh DDX43 (11728927_at) / RFU KRT8 (11758188_x_at) / Fold change /veh KRT8 (11758188_x_at) / RFU NKD1 (11759106_at) / Fold change /veh NKD1 (11759106_at) / RFU SRD5A1 (11742802_a_at) / Fold change /veh SRD5A1 (11742802_a_at) / RFU TPSAB1 /// TPSB2 (11721975_s_at) / Fold change /veh TPSAB1 /// TPSB2 (11721975_s_at) / RFU GSTM3 (11746129_a_at) / Fold change /veh GSTM3 (11746129_a_at) / RFU IL23R (11737362_x_at) / Fold change /veh IL23R (11737362_x_at) / RFU TMEM51 (11727254_a_at) / Fold change /veh TMEM51 (11727254_a_at) / RFU PIWIL2 (11732686_x_at) / Fold change /veh PIWIL2 (11732686_x_at) / RFU ORM1 (11744905_x_at) / Fold change /veh ORM1 (11744905_x_at) / RFU CCDC152 (11743942_at) / Fold change /veh CCDC152 (11743942_at) / RFU ECM1 (11717891_a_at) / Fold change /veh ECM1 (11717891_a_at) / RFU IL23R (11748794_a_at) / Fold change /veh IL23R (11748794_a_at) / RFU TNFAIP8L3 (11732012_x_at) / Fold change /veh TNFAIP8L3 (11732012_x_at) / RFU MBOAT4 (11741988_at) / Fold change /veh MBOAT4 (11741988_at) / RFU 11764193_at / Fold change /veh 11764193_at / RFU TMEM53 (11763286_at) / Fold change /veh TMEM53 (11763286_at) / RFU MAGEB2 (11727129_at) / Fold change /veh MAGEB2 (11727129_at) / RFU TMEM200A (11744735_a_at) / Fold change /veh TMEM200A (11744735_a_at) / RFU CCDC152 (11751479_a_at) / Fold change /veh CCDC152 (11751479_a_at) / RFU FAM211A (11726209_a_at) / Fold change /veh FAM211A (11726209_a_at) / RFU RGS16 (11746705_a_at) / Fold change /veh RGS16 (11746705_a_at) / RFU VCAN (11755009_s_at) / Fold change /veh VCAN (11755009_s_at) / RFU RHOB (11743442_s_at) / Fold change /veh RHOB (11743442_s_at) / RFU RGS16 (11720943_a_at) / Fold change /veh RGS16 (11720943_a_at) / RFU RGS16 (11720944_at) / Fold change /veh RGS16 (11720944_at) / RFU, VPS4B / Fold change vs veh, VPS4B / RFU, CREB1 / Fold change vs veh, CREB1 / RFU, DNAJC13 / Fold change vs veh, DNAJC13 / RFU, GNAQ / Fold change vs veh, GNAQ / RFU, CDK5R1 / Fold change vs veh, CDK5R1 / RFU, ZRANB3 / Fold change vs veh, ZRANB3 / RFU, CUL4A / Fold change vs veh, CUL4A / RFU, CCNY / Fold change vs veh, CCNY / RFU, UFL1 / Fold change vs veh, UFL1 / RFU, COG3 / Fold change vs veh, COG3 / RFU, DIAPH2 / Fold change vs veh, DIAPH2 / RFU, SKA2 / Fold change vs veh, SKA2 / RFU, AFF3 / Fold change vs veh, AFF3 / RFU, LMF1 / Fold change vs veh, LMF1 / RFU, IPO11 / Fold change vs veh, IPO11 / RFU, DFFB / Fold change vs veh, DFFB / RFU, FOXP1 / Fold change vs veh, FOXP1 / RFU, CARD8 / Fold change vs veh, CARD8 / RFU, STRN3 / Fold change vs veh, STRN3 / RFU, ADK / Fold change vs veh, ADK / RFU, RASSF2 / Fold change vs veh, RASSF2 / RFU, WIPF1 / Fold change vs veh, WIPF1 / RFU, LARP1B / Fold change vs veh, LARP1B / RFU, RASA1 / Fold change vs veh, RASA1 / RFU, RB1 / Fold change vs veh, RB1 / RFU, PPFIA1 / Fold change vs veh, PPFIA1 / RFU, MAT2A / Fold change vs veh, MAT2A / RFU, CCT5 / Fold change vs veh, CCT5 / RFU, WDR92 / Fold change vs veh, WDR92 / RFU, CUX1 / Fold change vs veh, CUX1 / RFU, TTC7A / Fold change vs veh, TTC7A / RFU, TMEM135 / Fold change vs veh, TMEM135 / RFU, DEPTOR / Fold change vs veh, DEPTOR / RFU, CPM / Fold change vs veh, CPM / RFU, DNAJB6 / Fold change vs veh, DNAJB6 / RFU, CACNA2D3 / Fold change vs veh, CACNA2D3 / RFU, DTX4 / Fold change vs veh, DTX4 / RFU, TFCP2 / Fold change vs veh, TFCP2 / RFU, GMCL1 /// GMCL1P1 / Fold change vs veh, GMCL1 /// GMCL1P1 / RFU, AEBP2 / Fold change vs veh, AEBP2 / RFU, SNHG1 /// SNORD22 /// SNORD25 /// SNORD26 /// SNORD27 /// SNORD28 /// SNORD29 /// SNORD31 / Fold change vs veh, SNHG1 /// SNORD22 /// SNORD25 /// SNORD26 /// SNORD27 /// SNORD28 /// SNORD29 /// SNORD31 / Fold change (Aza/veh), C12orf56 (ProbeSet 11735607_a_at) / Fold change (ACY-1035/veh), C12orf56 (ProbeSet 11735607_a_at) / Fold change (Aza/veh), FGFR1OP (ProbeSet 11751329_s_at) / Fold change (ACY-1035/veh), FGFR1OP (ProbeSet 11751329_s_at) / Fold change (Aza/veh), VPS36 (ProbeSet 11739960_a_at) / Fold change (ACY-1035/veh), VPS36 (ProbeSet 11739960_a_at) / RFU SYPL1 (11715823_x_at) / Fold change /veh SYPL1 (11715823_x_at) / RFU IGFBP7 (11715501_s_at) / Fold change /veh IGFBP7 (11715501_s_at) / RFU REEP3 (11722064_at) / Fold change /veh REEP3 (11722064_at) / RFU IGLL1 (11728026_x_at) / Fold change /veh IGLL1 (11728026_x_at): dose or concentration left out as unconfirmed
# Conditions: MV-4-11 cells, 48 hours
smiles,measurement,value
Nc1ccc(-c2cccs2)cc1NC(=O)c1ccc2c(c1)cc(C1CC1)n2CCN1CCOCC1 [ACY-1035],RFU FAM211A (11726209_a_at),5.89 RFU

# — PMC5218480 (PLoS ONE, 2017)
